Experimental data taken from patent EP1916248A1, “Furanone derivatives as cysteine protease inhibitors” (MEDIVIR AB, priority 2006, dated 2008).

Legend:
[1] = target: human cathepsin L (Homo sapiens, UniProt P07711); test: Cathepsin L Ki determination (fluorescent substrate H-D-Val-Leu-Lys-AMC); format: biochemical; settings: pH5.5
Experimental: The procedure above with the following amendments is used for the determination of Ki for cathepsin L.
The enzyme is commercially available human cathepsin L (for example Calbiochem). The substrate is H-D-Val-Leu-Lys-AMC available from Bachem. The assay buffer is 100 mM sodium acetate 1 mM EDTA, pH5.5) The DMSO stock (10 mM in 100%DMSO) is diluted to 10% in assay buffer. Enzyme is prepared at 5 nM concentration in assay buffer plus 1 mM dithiothreitol just before use. 2 ul of 10 mM inhibitor made up in 100% DMSO is dispensed into row A. 10 ul of 50 uM substrate (=1/200 dilution of 10 mM stock in DMSO, diluted in assay buffer)
Potential inhibitors are screened using the above assay with variable concentrations of test compound. Reactions were initiated by addition of enzyme to buffered solutions of substrate and inhibitor. Ki values were calculated according to equation 1 v0 = (VS)/(KM (1 + (I)/(Ki)) + S) [formula] where v0 is the velocity of the reaction, V is the maximal velocity, S is the concentration of substrate with Michaelis constant of KM, and / is the concentration of inhibitor.
Representative compounds of the invention were assayed for cathepsin K potency and selectivity in the assays above. Note that the cathepsin L and S data is in micromolar, whereas the compounds are so potent against cathepsin K that the results are presented in nanomolar.

[2] = target: T1, human cathepsin S (Homo sapiens, UniProt P25774); test: Cathepsin S Ki determination (fluorescent substrate boc-Val-Leu-Lys-AMC); format: biochemical; settings: baculovirus-expressed human cathepsin S, pH 6.5
T1 construct: made in house
T1 sequence (P25774 115-331): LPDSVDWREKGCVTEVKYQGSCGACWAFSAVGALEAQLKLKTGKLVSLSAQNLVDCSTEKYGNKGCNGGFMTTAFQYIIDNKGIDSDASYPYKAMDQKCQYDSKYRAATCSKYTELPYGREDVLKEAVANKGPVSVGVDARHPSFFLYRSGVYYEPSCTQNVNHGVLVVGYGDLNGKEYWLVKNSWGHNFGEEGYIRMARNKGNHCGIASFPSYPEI
Experimental: The assay uses baculovirus-expressed human cathepsin S and the boc-Val-Leu-Lys-AMC fluorescent substrate available from Bachem in a 384 well plate format, in which 7 test compounds can be tested in parallel with a positive control comprising a known cathepsin S inhibitor comparator.
280 ul/well of 12.5% DMSO are added to rows B - H of two columns of a 96 deep well polypropylene plate. 70 ul/well of substrate is added to row A. 2 x 250 ul/well of assay buffer (100 mM Na phosphate, 100 mM NaCl, pH 6.5) is added to row A, mixed, and double diluted down the plate to row H.
100 ul/well of assay buffer is added to columns 2-5 and 7-12 of 4 rows of a 96 well V bottom polypropylene plate. 200 ul/well of assay buffer is added to columns 1 and 6.
2 ul of each 10 mM test compound is added to a separate well on row A, columns 1-10. Add 90 ul assay buffer containing 1 mM DTT and 2 nM cathepsin S to each well of rows B-H and 180 ul to row A. Mix row A using a multichannel pipette and double dilute to row G. Mix row H and read in the fluorescent spectrophotometer.
The second test compound is added to column 6 of the top row, the third to column 1 of the second row etc. Add 1 ul of comparator to column 6 of the bottom row. […]
Using the a distributor such as a Multidrop 384, add 30 ul/well to all wells of the assay plate and read in fluorescent spectrophotometer such as an Ascent. […]

[3] = Permeability, transport through Caco-2 cell monolayers; settings: human
[4] = reference compounds (markers) of the permeability assay; cited from earlier work
[5] = target: T2, cathepsin K (Homo sapiens, UniProt P43235); test: Determination of cathepsin K proteolytic catalytic activity (Ki, fluorogenic peptide substrate); format: biochemical; settings: human recombinant enzyme
T2 construct: made in house; host or cells: not fixed: E coli, Pichia or Baculovirus systems named as options
T2 sequence (P43235 115-329): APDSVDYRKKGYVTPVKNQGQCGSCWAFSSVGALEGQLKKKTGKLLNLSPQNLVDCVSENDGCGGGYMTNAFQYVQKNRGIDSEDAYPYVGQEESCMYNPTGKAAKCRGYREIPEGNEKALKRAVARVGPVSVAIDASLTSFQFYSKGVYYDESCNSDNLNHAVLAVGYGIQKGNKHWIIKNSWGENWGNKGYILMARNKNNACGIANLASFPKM
Experimental: Convenient assays for cathepsin K are carried out using human recombinant enzyme, such as that described in PDB.
The recombinant cathepsin K can be expressed in a variety of commercially available expression systems including E coli, Pichia and Baculovirus systems. The purified enzyme is activated by removal of the prosequence by conventional methods.
The enzyme concentration used was 5 nM. The stock substrate solution was prepared at 10 mM in DMSO. […] The total DMSO concentration in the assay was kept below 3%. All assays were conducted at ambient temperature. Product fluorescence (excitation at 390 nm, emission at 460 nm) was monitored with a Labsystems Fluoroskan Ascent fluorescent plate reader.
Potential inhibitors are screened using the above assay with variable concentrations of test compound. Reactions were initiated by addition of enzyme to buffered solutions of substrate and inhibitor.

human cathepsin L, sequence (P07711 114-333): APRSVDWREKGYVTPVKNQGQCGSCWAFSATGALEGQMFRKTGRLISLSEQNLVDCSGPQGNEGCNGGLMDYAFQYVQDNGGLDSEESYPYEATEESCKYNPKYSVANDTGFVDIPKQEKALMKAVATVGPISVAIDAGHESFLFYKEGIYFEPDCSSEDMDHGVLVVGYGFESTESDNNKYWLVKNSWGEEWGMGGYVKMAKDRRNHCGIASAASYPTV

| SMILES | Ki [1] [µM] | Ki [2] [µM] | Papp at 120 min, 10 uM [3] [×10⁻⁶ cm/s] | % absorption in man [4] [%] | further results |
| --- | --- | --- | --- | --- | --- |
| CCC1OCC(=O)C1NC(=O)C1(NC(=O)c2ccc(-c3csc(N4CCN(C)CC4)n3)cc2)CCCCC1 (stereo not shown) [Example 2, N-[1-(2-Ethyl-4-oxo-tetrahydro-furan-3-ylcarbamoyl)-cyclohexyl]-4-[2-(4-methylpiperazin-1-yl)-thiazol-4-yl]-benzamide] | 120 | 770 | 36 | – | – |
| OC[C@@H](O)[C@@H](O)[C@H](O)[C@H](O)CO [Mannitol] | – | – | – | 16 | – |
| CN(Cc1cnc2nc(N)nc(N)c2n1)c1ccc(C(=O)N[C@@H](CCC(=O)O)C(=O)O)cc1 [Methotrexate] | – | – | – | 20 | – |
| CCC1OCC(=O)C1NC(=O)C(CC(C)C)NC(=O)c1ccc(-c2csc(N3CCN(C)CC3)n2)cc1 (stereo not shown) [Example 3, N-[1-(2-Ethyl-4-oxo-tetrahydro-furan-3-ylcarbamoyl)-3-methyl-butyl]-4-[2-(4-methylpiperazin-1-yl)-thiazol-4-yl]-benzamide] | 0.5 | 1.8 | 46 | – | Ki [5]: 1 nM |
| CC(C)C[C@H](NC(=O)c1ccc(N2CCN(C)CC2)cc1)C(=O)N[C@H]1C(=O)CO[C@@H]1C [Prior art, reference compound] | – | – | – | – | Papp at 10 µM [3]: 1 ×10⁻⁶ cm/s |
